Experimental data published in US10981893B2, “Therapeutic inhibitory compounds” (Attune Pharmaceuticals, Inc., priority 2015, dated 2021).

Biological target: kallikrein in human plasma (Homo sapiens (Human), UniProt P03952)
Assay: In vitro cellular assay / contact assay: kallikrein activity in ellagic acid-activated human plasma (Z-FR-2-AMC substrate)
Type: biochemical
Settings: human plasma activated with ellagic acid, 37° C.
Description: The ability of the compounds disclosed herein to inhibit cellular kallikrein activity was quantified and the respective EC50 value was determined.
Plasma kallikrein inhibitor C1NH (Athens Research & Technology, Cat #16-16-031509); Ellagic acid (Sigma, E2250); Substrate Z—FR-2-AMC (GL Biochem, Cat #55352); Nunc™ 96-Well Polypropylene MicroWell™ Plates (Nunc, Cat #267342)
All dilutions were prepared in an assay buffer comprising 50 mM Tris-HCl pH 7.2, 150 mM NaCl, and 0.01% Triton X-100.
Four fold serial dilutions were prepared from a 107.53 μM plasma kallikrein inhibitor C1NH stock solution, to yield ten solutions with concentrations between 20 μM and […]. Similarly, four fold serial dilutions were prepared from 10 mM stock solutions of various test compounds, to yield ten solutions with concentrations between 4 mM and 0.015 μM. The ten solutions of the test compounds, prepared by serial dilution, were further diluted 50-fold in the assay buffer.
Human plasma is thawed on ice and centrifuged for 15 min at 4° C. to remove platelets. A 1 mM stock solution of ellagic acid is diluted to 8 μM and mixed with human plasma, after removing platelets, at a ratio of 1:0.8. The mixture of human plasma and ellagic acid was further diluted 32-fold in the assay buffer, to yield the final mixture for use in the inhibition assay.
A 22.5 μL volume of the final mixture of human plasma and ellagic acid was added to a 96-well microwell plate and the plate was incubated for 15 min at 37° C.
The test compounds at various concentrations, also prepared by serial dilutions as described above, are added to the test wells. The volume of test compound added to each test well was 12.5 μL, to yield final concentrations of 20 μM, 5 μM, 1.25 μM, 312.5 nM, 78.125 nM, 19.531 nM, 4.883 nM, 1.221 nM, 0.305 nM, and 0.076 nM. Each test compound concentration was tested in duplicates.
In addition to the inhibitor control and test wells, the 96 well assay plate includes positive control wells which contained the mixture of human plasma and ellagic acid without C1NH inhibitor or test compounds, and background wells which contained neither the mixture of human plasma and ellagic acid nor the test compounds. The total volume of liquid in positive control and background wells was brought up to 35 μL, using the assay buffer.
The assay plate containing C1NH inhibitors and test compounds mixed with human plasma and ellagic acid and appropriate controls was incubated at 37° C. for 5 min. A 10 mM stock solution of substrate Z—FR-2-AMC was diluted to 133.2 μM in the assay buffer, and 15 μL of the diluted substrate was added to each well, to yield a final substrate concentration of 40 μM in each well. […]
The enzyme reaction was quantified by immediate kinetic reading of the assay plate using excitation/emission wavelengths of 330 nm/440 nm respectively. Fluorescence intensity was recorded for 60 min, using a time interval of 43 sec.
The inhibition activity of the test compounds were evaluated using the IC50 values, calculated according to the dose-response curve of the test compounds, fitted using the “log(inhibitor)-response(variable slope)” equation in GraphPadPrism software (GraphPad Software, Inc.).
The percentage inhibition was calculated using the following equation:
[formula] where, Mean(BG) is the average value of the fluorescence intensity of the background wells and Mean(PC) is the average value of the fluorescence intensity of the positive control wells. […]

Chain of kallikrein in human plasma (P03952 391-638 limits assumed): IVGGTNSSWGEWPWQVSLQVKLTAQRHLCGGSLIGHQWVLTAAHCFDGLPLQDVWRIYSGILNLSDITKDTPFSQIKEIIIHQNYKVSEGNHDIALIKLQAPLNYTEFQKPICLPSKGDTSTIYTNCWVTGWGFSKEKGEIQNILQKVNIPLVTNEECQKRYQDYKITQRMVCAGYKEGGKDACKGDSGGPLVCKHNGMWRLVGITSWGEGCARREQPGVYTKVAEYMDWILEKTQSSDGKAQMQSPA
Chain of kallikrein in human plasma (P03952 20-390 partner limits assumed): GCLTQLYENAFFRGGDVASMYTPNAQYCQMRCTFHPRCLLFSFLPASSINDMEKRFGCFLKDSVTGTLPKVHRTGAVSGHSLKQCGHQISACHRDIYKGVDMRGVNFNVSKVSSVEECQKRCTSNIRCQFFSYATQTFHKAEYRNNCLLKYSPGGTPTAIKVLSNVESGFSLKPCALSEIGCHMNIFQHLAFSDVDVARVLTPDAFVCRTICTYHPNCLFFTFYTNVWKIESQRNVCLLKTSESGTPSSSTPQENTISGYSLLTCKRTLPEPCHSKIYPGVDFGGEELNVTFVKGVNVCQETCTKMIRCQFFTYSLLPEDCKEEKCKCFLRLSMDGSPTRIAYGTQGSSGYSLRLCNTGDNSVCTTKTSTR

`Cc1cc(N)nc(C)c1CNC(=O)c1ccc(=O)n(Cc2ccc3ncc(Cl)cc3c2)c1` [Example 21, N-((6-amino-2,4-dimethylpyridin-3-yl)methyl)-1-((3-chloroquinolin-6-yl)methyl)-6-oxo-1,6-dihydropyridine-3-carboxamide] and `Cc1cc(N)nc(C)c1CNC(=O)c1cncc(Cc2ccc3ncc(Cl)cc3c2)c1` [Example 22, N-((6-amino-2,4-dimethylpyridin-3-yl)methyl)-5-((3-chloroquinolin-6-yl)methyl)nicotinamide] cannot be ordered by EC50: no more than 100 nM for the first, no more than 100 nM for the second.

Biological target: human Plasma Kallikrein (Homo sapiens (Human), UniProt P03952)
Assay: In vitro enzyme inhibition of human plasma kallikrein (Pro-Phe-Arg-AMC cleavage)
Type: biochemical
Settings: PFR-AMC substrate, 37° C., read-out: hPK IC50
Description: The ability of the compounds disclosed herein to inhibit human plasma kallikrein activity was quantified according to the procedures below.
A 10 mM solution of the test compound was made in DMSO. This solution was serially diluted 1:5 in DMSO to yield 2000, 400, 80, 16, 3.2, 0.64, 0.128, 0.0256 and 0.00512 μM compound test solutions. A control tube containing only DMSO is included. 16 μL of each compound test solution was combined with 384 μL of assay buffer (50 mM Tris-HCl pH 7.5, 150 mM NaCl, 0.01% Triton X-100) to yield a “4× test compound buffer stock”.
Separately, a 40 nM solution of human Plasma Kallikrein (Abcam) and a 93.6 μM solution Pro-Phe-Arg-AMC (Bachem) were made using assay buffer. These solutions are hereby refereed to as 4×hPK and 2×PFR-AMC, respectively.
60 μL of each 4× test compound buffer stock was combined with 60 μL of 4× hPK to yield 120 μL of “2× test compound buffer stock/2×hPK”. 50 μL was removed from this mixture and placed into duplicate wells on a Microfluor 1 Black U-bottom microtiter plate (Thermo Scientific). This plate was incubated for 5 minutes at 37° C. To each well, 50 μL of pre-warmed 2×PFR-AMC was added to start the enzymatic reaction. Cleavage of PFR-AMC was monitored in a Biotek Synergy H4 reader set at 37° C. Readings are taken every 43 seconds for 1 hour. The highest mean velocity over 20 reads (˜15 minutes) is used to calculate the IC50. The IC50 is calculated using the Gen5 (Biotek Instruments).
The ability of the compounds in Table 1 to inhibit human plasma kallikrein activity was determined and the data is shown in Table 3.

Chain of human Plasma Kallikrein (P03952 391-638 limits assumed): as the sequence (P03952 391-638 limits assumed) above
Chain of human Plasma Kallikrein (P03952 20-390 partner limits assumed): as the sequence (P03952 20-390 partner limits assumed) above

`O=C(NCc1n[nH]c2ccc(Cl)cc12)c1cncc(Cc2ccccc2C(F)(F)F)c1` [Example 1, N-((5-chloro-1H-indazol-3-yl)methyl)-5-(2-(trifluoromethyl)benzyl)nicotinamide] and `O=C(NCc1n[nH]c2ccc(Cl)cc12)c1cncc(Cc2ccc(C(F)(F)F)cc2)c1` [Example 3, N-((5-chloro-1H-indazol-3-yl)methyl)-5-(4-(trifluoromethyl)benzyl)nicotinamide] fall in the same range of IC50: 1000 to 10000 nM for the first, 1000 to 10000 nM for the second.

`N#Cc1ccc(Cc2cncc(C(=O)NCc3n[nH]c4ccc(Cl)cc34)c2)cc1` [Example 2, N-((5-chloro-1H-indazol-3-yl)methyl)-5-(4-cyanobenzyl)nicotinamide] and `Cc1ccc(Cc2cncc(C(=O)NCc3n[nH]c4ccc(Cl)cc34)c2)cc1` [Example 4, N-((5-chloro-1H-indazol-3-yl)methyl)-5-(4-methylbenzyl)nicotinamide] fall in the same range of IC50: 1000 to 10000 nM for the first, 1000 to 10000 nM for the second.

`O=C(NCc1n[nH]c2ccc(Cl)cc12)c1cncc(Cc2ccccc2)c1` [Example 5, 5-benzyl-N-((5-chloro-1H-indazol-3-yl)methyl)nicotinamide] and `NC(=O)c1ccccc1Cc1cncc(C(=O)NCc2n[nH]c3ccc(Cl)cc23)c1` [Example 6, 5-(2-carbamoylbenzyl)-N-((5-chloro-1H-indazol-3-yl)methyl)nicotinamide] fall in the same range of IC50: 1000 to 10000 nM for the first, 1000 to 10000 nM for the second.

First: N#Cc1cnn(Cc2cncc(C(=O)NCc3cc4c(Cl)c[nH]c4cc3F)c2)c1 [Example 7, N-((3-chloro-6-fluoro-1H-indol-5-yl)methyl)-5-((4-cyano-1H-pyrazol-1-yl)methyl)nicotinamide]
Second: NC(=O)c1cnn(Cc2cncc(C(=O)NCc3cc4c(Cl)c[nH]c4cc3F)c2)c1 [Example 8, 5-((4-carbamoyl-1H-pyrazol-1-yl)methyl)-N-((3-chloro-6-fluoro-1H-indol-5-yl)methyl)nicotinamide]
The IC50 of the first is lower: 1000 to 10000 nM for the first, greater than 10000 nM for the second. The first is the more potent here.

Compared with `CC(=O)N(Cc1ccn(Cc2cc(C(=O)NCc3cc4c(Cl)c[nH]c4cc3F)ccn2)n1)C1CC1` [Example 9, N-((3-chloro-6-fluoro-1H-indol-5-yl)methyl)-2-((3-((N-cyclopropylacetamido)methyl)-1H-pyrazol-1-yl)methyl)isonicotinamide], `O=C(NCc1cc2c(Cl)c[nH]c2cc1F)c1ccc(=O)n(CC23CC(Cn4ccccc4=O)(C2)C3)c1` [Example 17, N-((3-chloro-6-fluoro-1H-indol-5-yl)methyl)-6-oxo-1-((3-((2-oxopyridin-1(2H)-yl)methyl)bicyclo[1.1.1]pentan-1-yl)methyl)-1,6-dihydropyridine-3-carboxamide] is lower in IC50: greater than 10000 nM for the first, 1000 to 10000 nM for the second.

`NC(=O)C(NC(=O)c1cncc(Cc2ccc(Cn3ccccc3=O)cc2)c1)c1n[nH]c2ccc(Cl)cc12` (centres unmarked) [Example 11, N-(2-amino-1-(5-chloro-1H-indazol-3-yl)-2-oxoethyl)-5-(4-((2-oxopyridin-1(2H)-yl)methyl)benzyl)nicotinamide] and `O=C(NC(C(=O)O)c1n[nH]c2ccc(Cl)cc12)c1cncc(Cc2ccc(Cn3ccccc3=O)cc2)c1` (centres unmarked) [Example 12, 2-(5-chloro-1H-indazol-3-yl)-2-(5-(4-((2-oxopyridin-1(2H)-yl)methyl)benzyl)nicotinamido)acetic acid] fall in the same range of IC50: 1000 to 10000 nM for the first, 1000 to 10000 nM for the second.

`NC(=O)c1ccc(CNC(=O)c2cncc(Cc3ccc(Cn4ccccc4=O)cc3)c2)cc1` [Example 14, N-(4-carbamoylbenzyl)-5-(4-((2-oxopyridin-1(2H)-yl)methyl)benzyl)nicotinamide] and `O=C(NCc1ccc(Cl)cc1)c1cncc(Cc2ccc(Cn3ccccc3=O)cc2)c1` [Example 15, N-(4-chlorobenzyl)-5-(4-((2-oxopyridin-1(2H)-yl)methyl)benzyl)nicotinamide] fall in the same range of IC50: 1000 to 10000 nM for the first, 1000 to 10000 nM for the second.

First: COc1ccc(CNC(=O)c2cncc(Cc3ccc(Cn4ccccc4=O)cc3)c2)cc1 [Example 16, N-(4-methoxybenzyl)-5-(4-((2-oxopyridin-1(2H)-yl)methyl)benzyl)nicotinamide]
Second: O=C(NCc1ccc(Br)c(F)c1)c1ccnc(Cc2ccc(Cn3ccccc3=O)cc2)c1 [Example 18, N-(4-bromo-3-fluorobenzyl)-2-(4-((2-oxopyridin-1(2H)-yl)methyl)benzyl)isonicotinamide]
The IC50 of the first is lower: 1000 to 10000 nM for the first, greater than 10000 nM for the second. The first is the more potent here.

Compared with `Cc1cc(C#N)ccc1CNC(=O)c1ccnc(Cc2ccc(Cn3ccccc3=O)cc2)c1` [Example 19, N-(4-cyano-2-methylbenzyl)-2-(4-((2-oxopyridin-1(2H)-yl)methyl)benzyl)isonicotinamide], `CS(=O)(=O)c1cc(Cc2cc(C(=O)NCc3ccc4c(N)noc4c3)ccn2)ccc1Cn1ccccc1=O` [Example 20, N-((3-aminobenzo[d]isoxazol-6-yl)methyl)-2-(3-(methylsulfonyl)-4-((2-oxopyridin-1(2H)-yl)methyl)benzyl)isonicotinamide] is lower in IC50: greater than 10000 nM for the first, 100 to 1000 nM for the second. The second is the more potent here.

`Cc1cc(N)nc(C)c1CNC(=O)c1ccc(=O)n(Cc2ccc3ncc(Cl)cc3c2)c1` [Example 21, N-((6-amino-2,4-dimethylpyridin-3-yl)methyl)-1-((3-chloroquinolin-6-yl)methyl)-6-oxo-1,6-dihydropyridine-3-carboxamide] and `Cc1cc(N)nc(C)c1CNC(=O)c1cncc(Cc2ccc3ncc(Cl)cc3c2)c1` [Example 22, N-((6-amino-2,4-dimethylpyridin-3-yl)methyl)-5-((3-chloroquinolin-6-yl)methyl)nicotinamide] cannot be ordered by IC50: no more than 100 nM for the first, no more than 100 nM for the second.

`Cc1cc(N)nc(C)c1CNC(=O)c1ccnc(Cc2ccc3ncc(Cl)cc3c2)n1` [Example 24, N-((6-amino-2,4-dimethylpyridin-3-yl)methyl)-2-((3-chloroquinolin-6-yl)methyl)pyrimidine-4-carboxamide] and `CS(=O)(=O)c1cc(Cc2cc(C(=O)NCc3cnc(N)cc3C(F)(F)F)ccn2)ccc1Cn1ccccc1=O` [Example 27, N-((6-amino-4-(trifluoromethyl)pyridin-3-yl)methyl)-2-(3-(methylsulfonyl)-4-((2-oxopyridin-1(2H)-yl)methyl)benzyl)isonicotinamide] cannot be ordered by IC50: no more than 100 nM for the first, 100 to 1000 nM for the second.

First: CS(=O)(=O)c1cc(Cc2cc(C(=O)NCc3ccc(N)nc3C(F)(F)F)ccn2)ccc1Cn1ccccc1=O [Example 26, N-((6-amino-2-(trifluoromethyl)pyridin-3-yl)methyl)-2-(3-(methylsulfonyl)-4-((2-oxopyridin-1(2H)-yl)methyl)benzyl)isonicotinamide]
Second: CS(=O)(=O)c1cc(Cc2cc(C(=O)NCc3n[nH]c4ccc(Cl)cc34)ccn2)ccc1Cn1ccccc1=O [Example 30, N-((5-chloro-1H-indazol-3-yl)methyl)-2-(3-(methylsulfonyl)-4-((2-oxopyridin-1(2H)-yl)methyl)benzyl)isonicotinamide]
The IC50 of the first is higher: 1000 to 10000 nM for the first, no more than 100 nM for the second.
